Our source for the IC50 values is patent US12319655B2, “RAF kinase inhibitors and methods of use thereof” (Deciphera Pharmaceuticals, LLC, priority 2021, dated 2025).

One assay relates to WM3928 cells. Description: WM3928 Cell Proliferation Assay (1). The assay is classed as cell-based. A digest of the protocol: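 IC50 was derived from resazurin fluorescence (ex 540, em 600 nm) after a 6–7 h dye incubation. Before that, cells had 67–72 h of compound exposure at 37 °C, 5% CO2.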
The target of assay [1] is B-Raf kinase (SEQ. ID NO: 2) (Homo sapiens (Human), UniProt P15056). Description: Biochemical Assay for B-Raf (1). The following applies: Table J, biochemical assay (1); read-out: BRAF (1). A digest of the protocol: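 Continuous PK/LDH-coupled NADH oxidation assay, A340 read for 6 h at 30° C., with 0.13 nM B-Raf, 30.1 nM MEK substrate and 1 mM ATP in Tris pH 7.5, MgCl2, DTT, detergents, 1% DMSO. Rate taken from 4–5 h window; percent inhibition vs no-compound and known-inhibitor controls; four-parameter fit gives IC50.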
Sequence of B-Raf kinase (SEQ. ID NO: 2) (P15056 416-766): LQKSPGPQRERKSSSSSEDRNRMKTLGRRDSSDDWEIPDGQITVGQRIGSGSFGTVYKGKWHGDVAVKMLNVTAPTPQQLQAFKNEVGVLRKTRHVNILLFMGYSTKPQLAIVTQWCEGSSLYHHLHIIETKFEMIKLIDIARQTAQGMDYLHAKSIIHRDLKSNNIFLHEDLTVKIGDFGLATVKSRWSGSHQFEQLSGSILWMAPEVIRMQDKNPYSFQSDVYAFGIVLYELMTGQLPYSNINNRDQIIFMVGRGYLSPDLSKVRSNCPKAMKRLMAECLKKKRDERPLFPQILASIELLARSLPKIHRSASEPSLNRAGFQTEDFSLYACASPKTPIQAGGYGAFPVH

In assay [2] the test system is Miapaca-2 cells. Description: MiaPaca-2 Cell Proliferation Assay (1). Type of assay: cell-based. The following applies: Homo sapiens, MIA PaCa-2, single agent, read-out: MiaPaca2 (1) IC50. In outline:
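Resazurin was added after compound exposure and incubated 5-6 h, then fluorescence read at 540 nm excitation and 600 nm emission to give IC50.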

The subject of assay [3] is Miapaca-2 cells. Description: MiaPaca-2 Cell Proliferation Assay (2). Type of assay: cell-based. The following applies: Homo sapiens, MIA PaCa-2, single agent. As for the experimental part:
MiaPaca-2 Cell Proliferation Assay (2)
Miapaca-2 cells (catalog #CRL-1420) are obtained from the American Type Culture Collect (ATTC, Manassas, VA). Briefly, cells were grown in DMEM supplemented with 10% characterized fetal bovine serum (Invitrogen, Carlsbad, CA), 2.5% New Zealand sourced horse serum and 1% Penicillin/Streptomycin/L-Glutamine at 37° C., 5% CO2, and 95% humidity. Cells are expanded until reaching 70-95% confluency at which point they are sub-cultured or harvested for assay use. A serial dilution of test compound is dispensed into a 384-well black clear bottom plate in triplicate. Seven hundred fifty cells are added per well in 50 μL complete growth medium in the 384-well plate. Plates are incubated for 67-72 h at 37° C., 5% CO2, and 95% humidity. At the end of the incubation, 10 μL of a 440 μM solution of resazurin (Sigma, St. Louis, MO) in PBS is added to each well of the plate and plates are incubated for an additional 5-6 h at 37° C., 5% CO2, and 95% humidity. Plates are read on a Synergy2 or equivalent reader (Biotek, Winooski VT) using an excitation of 540 nm and an emission of 600 nm. Data is analyzed using Prism software (GraphPad, San Diego, CA) to calculate IC50 values.

Consider `COC(=O)Nc1cc(-c2cncc(-c3cc(NC(=O)c4ccnc(C(C)(C)C#N)c4)ccc3C)c2)ncn1` [Example 414], for which the IC50 with WM3928 cells was no more than 100 nM; in assay [1], no more than 100 nM; in the assay with Miapaca-2 cells [2], 100 to 500 nM.

Regarding `COC(=O)Nc1cc(-c2cc(-c3cc(NC(=O)c4ccnc(C(C)(C)F)c4)ccc3C)nc(C)n2)ccn1` [Example 416], the IC50 in the assay with WM3928 cells was no more than 100 nM; in assay [1], no more than 100 nM; in the assay on Miapaca-2 cells [2], 500 to 1000 nM.

In the case of `Cc1ccc(NC(=O)c2ccnc(C(C)(C)F)c2)cc1-c1cncc(-c2ccnc(NC(=O)C3CC3)c2)c1` [Example 417], the IC50 in the assay with WM3928 cells is no more than 100 nM; in assay [1], no more than 100 nM; in the assay with Miapaca-2 cells [2] it was 500 to 1000 nM. With `Cc1cc(F)c(NC(=O)c2ccnc(C(C)(C)C#N)c2)cc1-c1cncc(-c2ccnc(NC(=O)C3CC3)c2)c1` [Example 418], the IC50 is no more than 100 nM in the assay on WM3928 cells, no more than 100 nM in assay [1] and 100 to 500 nM in the assay on Miapaca-2 cells [2]. Take `Cc1ccc(NC(=O)c2ccnc(C(C)(F)F)c2)cc1-c1cncc(-c2cc(NC(=O)C3CC3)ncn2)c1` [Example 419]: the IC50 with WM3928 cells was no more than 100 nM; in assay [1] it was no more than 100 nM; in the assay with Miapaca-2 cells [2] it was 100 to 500 nM.

As for `Cc1ccc(NC(=O)c2cc(C3CC3)on2)cc1-c1cncc(-c2cc(NC(=O)C3CC3)ncn2)c1` [Example 421], the IC50 in the assay with WM3928 cells is no more than 100 nM; in assay [1] it was no more than 100 nM; in the assay on Miapaca-2 cells [2] it was 1000 to 10000 nM.

As for `CNC(=O)c1cc(-c2nccc(-c3cc(NC(=O)c4ccnc(C(C)(C)F)c4)c(F)cc3C)n2)ccn1` [Example 427], the IC50 was no more than 100 nM in the assay on WM3928 cells, 100 to 500 nM in assay [1] and 1000 to 10000 nM in the assay with Miapaca-2 cells [2].

With `Cc1ccc(NC(=O)c2cnn(C3CC3)c2)cc1-c1cncc(-c2cc(NC(=O)C3CC3)ncn2)c1` [Example 430], the IC50 in the assay with WM3928 cells was no more than 100 nM; in assay [1], no more than 100 nM; in the assay with Miapaca-2 cells [2], 1000 to 10000 nM. On to `Cc1ccc(NC(=O)c2cc(C(C)(C)C)on2)cc1-c1cncc(-c2cc(NC(=O)C3CC3)ncn2)c1` [Example 431], for which the IC50 with WM3928 cells is no more than 100 nM; in assay [1] it was no more than 100 nM; in the assay with Miapaca-2 cells [2], 1000 to 10000 nM. Regarding `Cc1ncc(NC(=O)c2ccnc(C(C)(C)F)c2)cc1-c1cncc(-c2ccnc(NC(=O)C3CC3)c2)c1` [Example 433], the IC50 with WM3928 cells is no more than 100 nM; in assay [1], no more than 100 nM; with Miapaca-2 cells [2], 500 to 1000 nM. Regarding `Cc1ccc(NC(=O)c2ccnc(C(C)C)c2)cc1-c1cncc(-c2cc(NC(=O)C3CC3)ncn2)c1` [Example 434], the figures for the IC50 (in the assay on WM3928 cells; in assay [1]; with Miapaca-2 cells [2]) were no more than 100 nM, no more than 100 nM and 100 to 500 nM, respectively. As to `COC(=O)Nc1cc(-c2cncc(-c3cc(NC(=O)c4ccnc(C(C)(C)F)c4)ccc3C)c2)ccn1` [Example 435], the IC50 with WM3928 cells is no more than 100 nM; in assay [1] it was no more than 100 nM; in the assay on Miapaca-2 cells [2], 500 to 1000 nM. `Cc1ccc(NC(=O)c2cc(C3CC3)n(C)n2)cc1-c1nccc(-c2ccnc(NC(=O)C3CC3)c2)n1` [Example 436]: the IC50 with WM3928 cells is no more than 100 nM; in assay [1], no more than 100 nM; with Miapaca-2 cells [2], 1000 to 10000 nM. On to `CNC(=O)c1cc(-c2cc(-c3cc(NC(=O)c4ccnc(C(C)(C)C#N)c4)ccc3OC)ccn2)ccn1` [Example 437], for which the IC50 was in the range of 500 to 1000 nM with WM3928 cells, 100 to 500 nM in assay [1] and 1000 to 10000 nM in the assay with Miapaca-2 cells [2]. Take `COc1ccc(NC(=O)c2ccnc(C(C)(C)C#N)c2)cc1-c1cccc(-c2cc(NC(=O)C3CC3)ncn2)c1` [Example 438]: the IC50 in the assay on WM3928 cells is no more than 100 nM; in assay [1] it was no more than 100 nM; in the assay with Miapaca-2 cells [2], 1000 to 10000 nM.

In the case of `CNC(=O)c1cc(-c2cncc(-c3cc(NC(=O)c4ccnc(C(C)(F)F)c4)ccc3C)c2)ncn1` [Example 439], the IC50 in the assay on Miapaca-2 cells [3] fell in the range of 1000 to 10000 nM.

`CNC(=O)c1cc(-c2cncc(-c3cc(NC(=O)c4ccnc(C(C)(F)F)c4)ccc3C)c2)ccn1` [Example 440]: the IC50 with Miapaca-2 cells [3] fell in the range of 1000 to 10000 nM. Same read-out and setting: the same measure for `CNC(=O)c1cc(-c2cc(-c3cc(NC(=O)c4ccnc(C(C)(F)F)c4)ccc3C)ccn2)ccn1` [Example 441]: 1000 to 10000 nM; for `CNC(=O)c1cc(-c2cncc(-c3cc(NC(=O)c4ccnc(C(C)(C)C#N)c4)ccc3C)c2)ccn1` [Example 442]: 500 to 1000 nM; for `CNC(=O)c1cc(-c2cc(-c3cc(NC(=O)c4ccnc(C(C)C)c4)ccc3C)ccn2)ccn1` [Example 443]: 500 to 1000 nM. On the same count and under the same terms, the result for `CNC(=O)c1cc(-c2cncc(-c3cc(NC(=O)c4ccnc(C(C)C)c4)ccc3C)c2)ccn1` [Example 445] reads 1000 to 10000 nM. For `CNC(=O)c1cc(-c2cncc(-c3cc(NC(=O)c4ccnc(C(C)C)c4)ccc3C)c2)ncn1` [Example 446], the IC50 in the assay on Miapaca-2 cells [3] lay in the range of 1000 to 10000 nM. For `Cc1ccc(NC(=O)c2ccnc(C(C)C)c2)cc1-c1ccnc(-c2ccnc(NC(=O)C3CC3)c2)c1` [Example 467], in the assay with Miapaca-2 cells [3], the IC50 was 500 to 1000 nM. Regarding `Cc1ncc(NC(=O)c2ccnc(C(C)C)c2)cc1-c1ccnc(-c2ccnc(NC(=O)C3CC3)c2)c1` [Example 468], the IC50 in the assay on Miapaca-2 cells [3] was 500 to 1000 nM. Same read-out and setting: the result for `CNC(=O)c1cc(-c2cc(-c3cc(NC(=O)c4ccnc(C(C)(C)F)c4)ccc3C)c(F)cn2)ccn1` [Example 469] reads 1000 to 10000 nM; that for `CNC(=O)c1cc(-c2cc(-c3cc(NC(=O)c4ccnc(C(C)(C)F)c4)ccc3C)cc(C)n2)ccn1` [Example 470], 1000 to 10000 nM. On the same count and under the same terms, the result for `Cc1ccc(NC(=O)c2ccnc(C(C)(C)F)c2)cc1-c1ccnc(-c2ccnc(C(N)=O)c2)c1` [Example 476] reads 1000 to 10000 nM; that for `CNC(=O)c1cc(-c2cc(-c3cc(NC(=O)c4ccnc(C(C)(C)F)c4)ccc3F)ccn2)ccn1` [Example 479], 1000 to 10000 nM; that for `CNC(=O)c1cc(-c2cc(-c3cc(NC(=O)c4ccnc(C(C)(C)F)c4)cc(F)c3C)ccn2)ccn1` [Example 480], 1000 to 10000 nM. `CNC(=O)c1cc(-c2cc(-c3cc(NC(=O)c4ccnc(C(C)(C)F)c4)c(F)cc3F)ccn2)ccn1` [Example 482]: in the assay on Miapaca-2 cells [3], the IC50 fell in the range of 1000 to 10000 nM. As for `Cc1cc(-c2cc(NC(=O)c3ccnc(C(C)(C)F)c3)ccc2C)cc(-c2ccnc(C(N)=O)c2)n1` [Example 484], the IC50 in the assay with Miapaca-2 cells [3] lay within 1000 to 10000 nM.
